Where “and” joins values, the source holds several entries; their conditions need not be identical. Equal entries are not always repeated. Where two headings read alike, the source gives them in different places. Marks after values point to notes of the source that are not given here.

In data set [1] the target is T1, hGLP-1R (Homo sapiens, UniProt P43220).
T1 construct: expressed in transfected cells; host or cells: HEK-293 clonal cell line
Description: Functional cAMP assay in HEK-293 cells expressing hGLP-1R. In kind it is cell-based. The conditions noted are these: percent of maximal response to GLP-1(7-36)NH2, read-out: hGLP-1R Emax. The procedure:
(§1) Experiments also are performed under identical assay conditions with the addition of 1.0% fatty acid free, globulin free human serum albumin (Sigma Cat #A3782).
(§2) After a 30-min incubation at 37° C., the resulting increase in intracellular cAMP is quantitatively determined using a CisBio cAMP Dynamic 2 HTRF Assay Kit (62AM4PEJ). Briefly, cAMP levels within the cell are detected by adding the cAMP-d2 conjugate in cell lysis buffer (10 μL) followed by the antibody anti-cAMP-Eu^3+-Cryptate, also in cell lysis buffer (10 μL). The resulting competitive assay is incubated for at least 60 min at room temperature, and then is detected using a PerkinElmer Envision® instrument with excitation at 320 nm and emission at 665 nm and 620 nm. Envision units (emission at 665 nm/620 nm*10,000) are inversely proportional to the amount of cAMP present and are converted to nM cAMP per well using a cAMP standard curve. […] A relative EC50 value and percent top (Emax) are derived by non-linear regression analysis using the percent maximal response vs. the concentration of peptide added, fitted to a four-parameter logistic equation.
(In general: Cyclic AMP is a second messenger, typically raised through Gs and lowered through Gi signalling.)

Data set [2] deals with T2, hGCGR (Homo sapiens, UniProt P47871, DEL55-55).
T2 construct: expressed in transfected cells; host or cells: HEK-293 clonal cell line
T2 sequence (P47871 with tags, fused parts or gaps DEL55-55): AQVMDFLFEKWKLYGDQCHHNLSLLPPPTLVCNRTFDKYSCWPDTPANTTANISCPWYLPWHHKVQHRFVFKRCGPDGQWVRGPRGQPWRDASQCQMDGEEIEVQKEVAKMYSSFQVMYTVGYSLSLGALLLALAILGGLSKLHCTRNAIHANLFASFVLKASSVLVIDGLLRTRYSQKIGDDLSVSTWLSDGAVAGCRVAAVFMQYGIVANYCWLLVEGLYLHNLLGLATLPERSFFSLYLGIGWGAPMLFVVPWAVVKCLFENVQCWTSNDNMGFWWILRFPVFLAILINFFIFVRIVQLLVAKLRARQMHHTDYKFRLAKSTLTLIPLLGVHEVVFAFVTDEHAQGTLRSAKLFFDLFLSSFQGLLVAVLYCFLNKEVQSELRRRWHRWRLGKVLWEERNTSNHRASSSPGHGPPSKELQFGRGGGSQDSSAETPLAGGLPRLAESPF
Description: Functional cAMP assay in HEK-293 cells expressing hGCGR. In kind it is cell-based. The conditions noted are these: percent of maximal response to GCG. The procedure:
as §1, §2

Data set [3] deals with T3, hGIPR (Homo sapiens, UniProt P48546).
T3 construct: expressed in transfected cells; host or cells: HEK-293 clonal cell line
T3 sequence (P48546 22-466): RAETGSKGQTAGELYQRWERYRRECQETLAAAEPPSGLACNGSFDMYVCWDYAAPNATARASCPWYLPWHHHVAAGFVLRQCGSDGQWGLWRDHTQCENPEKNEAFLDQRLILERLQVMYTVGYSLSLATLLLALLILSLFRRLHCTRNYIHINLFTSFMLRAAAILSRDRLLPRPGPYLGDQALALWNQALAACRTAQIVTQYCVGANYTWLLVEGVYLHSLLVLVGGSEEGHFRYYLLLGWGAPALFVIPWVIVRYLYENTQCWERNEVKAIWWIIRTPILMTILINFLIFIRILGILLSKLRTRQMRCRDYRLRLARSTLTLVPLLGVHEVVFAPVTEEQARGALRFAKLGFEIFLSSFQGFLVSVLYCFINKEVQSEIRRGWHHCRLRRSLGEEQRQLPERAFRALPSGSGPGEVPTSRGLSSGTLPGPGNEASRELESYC
Description: Functional cAMP assay in HEK-293 cells expressing hGIPR. The class given is cell-based. To be noted: percent of maximal response to GIP(1-42)NH2, read-out: hGIPR Emax. The procedure:
as §1, §2

Data set [4] in a line: Pharmacokinetics in male diet-induced obese (DIO) mice. In kind it is in vivo. The conditions noted are these: mouse, subcutaneous, single 200 nmol/kg SQ dose, plasma. The protocol: Methods: Male DIO mice are administered a single SQ dose of 200 nmol/kg (0.98 mg/kg) of Example compounds in 40 mM Tris-HCL pH8 buffer with 0.02% PS80 at a volume of 10 mL/kg. […] Plasma concentration of Example compounds are determined by a qualified Liquid Chromatography Mass Spectrometry (LC/MS) method at Q Squared Solutions BioSciences LLC (Ithaca, NY). The Example compounds and an internal standard are extracted from 100% mouse plasma using protein precipitation followed by solid phase extraction. The intact mass of the Example compounds, which includes peptide plus acyl chain, are detected by a Q-Exactive™ Orbitrap® mass spectrometer.

A short description of data set [5]: Insulin secretion during ivGTT in male Wistar rats. The conditions noted are these: Sema: semaglutide 10 nmol/kg positive control, one per run of each Example compound. The class given is in vivo. The protocol: Methods: An intravenous glucose tolerance test (ivGTT) in Male Wistar rats is used to estimate insulinotropic potency of the Example compounds. A GLP-1R agonist, semaglutide, is used as a positive control. […] Semaglutide is used as positive control in connection with each run of Example compounds ([…] dose).
A time 0 blood sample is collected into EDTA tubes after which glucose is administered ([…], 5 mL/kg). Blood samples are collected for glucose and insulin levels at time 2, 4, 6, 10, 20 and 30 min post intravenous administration of glucose. Plasma insulin is determined using an electrochemiluminescence assay (Meso Scale; Rockville, MD).
Statistical analysis is performed using JMP with a one-way ANOVA followed by Dunnett's comparison to the vehicle control.

A short description of data set [6]: Weight loss, metabolism and body composition in DIO C57/B16 mice. The class given is in vivo. The procedure: Methods: To investigate the effects of the Example compounds on parameters such as weight loss, metabolism and body composition, the Example compounds are dosed to C57B16 DIO mice. These animals, although not diabetic, display insulin resistance and dyslipidemia, all characteristics of metabolic syndrome, after being placed on a high fat diet for 20 weeks.
Here, DIO male C57/B16 mice at 20 weeks old are maintained on a calorie-rich diet are used in the following studies. […] After a 3-week acclimation to the facility, which includes 1 week of vehicle acclimation dosing, the mice are randomized according to their body weight, so each experimental group of animals would have similar body weight.
All groups contain 6 mice. […] Body weight and food intake are measured daily throughout the study, including 1 day after last dose (Day 15).
Absolute changes in body weight are calculated by subtracting the body weight of the same animal prior to the first injection of molecule. On Days 0 and 15, total fat mass is measured by nuclear magnetic resonance (NMR) using an Echo Medical System (Houston, TX) instrument. On Day 15, metabolic parameters are measured using Accu-Chek® Aviva® Glucometers (Roche; Indianapolis, IN) or a Hitachi clinical blood analyzer (Roche, Indianapolis, IN). Plasma insulin is determined using an electrochemiluminescence assay (Meso Scale Discovery, Rockville, MD).
Data are presented as mean±t SEM of 6animals per group in Tables 7 and 8 below. Statistical analysis is performed using repeated measures ANOVA, followed by Dunneti's method for multiple comparisons. Significant differences are identified as * with p<0.05.

Where [7] appears, read: HEK293, 0.1% bovine casein and 1.0% human serum albumin.
Setting [8] is: 10 nmol/kg SQ daily, day 15 difference vs vehicle, DIO mice.

T1 sequence (P43220 24-463): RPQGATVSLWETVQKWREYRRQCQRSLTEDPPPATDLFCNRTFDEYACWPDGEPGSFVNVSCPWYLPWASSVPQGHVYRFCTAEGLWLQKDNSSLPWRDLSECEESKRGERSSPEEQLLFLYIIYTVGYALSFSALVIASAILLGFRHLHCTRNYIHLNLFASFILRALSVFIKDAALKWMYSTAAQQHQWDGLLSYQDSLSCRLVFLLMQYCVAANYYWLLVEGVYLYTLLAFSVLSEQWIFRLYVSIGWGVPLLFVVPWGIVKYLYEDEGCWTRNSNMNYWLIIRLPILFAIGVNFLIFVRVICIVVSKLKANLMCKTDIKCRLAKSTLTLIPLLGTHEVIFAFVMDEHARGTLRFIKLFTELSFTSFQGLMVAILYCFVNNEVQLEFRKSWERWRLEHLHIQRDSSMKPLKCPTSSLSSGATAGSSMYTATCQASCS

`CC[C@H](C)[C@H](NC(=O)[C@H](Cc1ccccc1)NC(=O)C(C)(C)NC(=O)[C@](C)(CC(C)C)NC(=O)[C@H](CCC(N)=O)NC(=O)[C@H](C)NC(=O)[C@H](CCCCNC(=O)COCCOCCNC(=O)CC[C@H](NC(=O)CCCCCCCCCCCCCCCCCCC(=O)O)C(=O)O)NC(=O)[C@H](CCCN)NC(=O)[C@H](CC(=O)O)NC(=O)[C@H](CC(C)C)NC(=O)[C@](C)(CC(C)C)NC(=O)[C@@H](NC(=O)[C@H](CO)NC(=O)[C@H](Cc1ccncc1)NC(=O)[C@H](CC(=O)O)NC(=O)[C@H](CO)NC(=O)[C@@H](NC(=O)[C@](C)(Cc1ccccc1F)NC(=O)[C@@H](NC(=O)CNC(=O)[C@H](CCC(N)=O)NC(=O)C(C)(C)NC(=O)[C@@H](N)Cc1ccc(O)cc1)[C@@H](C)O)[C@@H](C)O)[C@@H](C)CC)C(=O)N[C@H](CCC(=O)O)C(=O)N[C@@](C)(Cc1ccc(O)cc1)C(=O)N[C@@H](CC(C)C)C(=O)N[C@@H](CC(C)C)C(=O)N[C@@H](CCC(=O)O)C(=O)NCC(=O)NCC(=O)N1CCC[C@H]1C(=O)N[C@@H](CO)C(=O)N[C@@H](CO)C(=O)NCC(=O)N[C@@H](CCC(=O)O)C(=O)N1CCC[C@H]1C(=O)N1CCC[C@H]1C(=O)N1CCC[C@H]1C(=O)N[C@@H](CO)C(N)=O` [Example 3]: the maximum response (Emax) in data set [1] (setting [7]) was found to be 111 ± 5%; in data set [1] (HEK293, 0.1% bovine casein), 107 ± 2%; in data set [2] (setting [7]) it was 97 ± 9%; in data set [2] (HEK293, 0.1% bovine casein) it was 99 ± 4%; in data set [3] (setting [7]), 105 ± 5%; in data set [3] (HEK293, 0.1% bovine casein), 103 ± 2%. The compound further returned an AUC(0-inf) in data set [4] of 32.8 µM·h. The CL/F in data set [4] is 0.102 mL/min/kg. The compound also came in with a Cmax in data set [4] of 1070 nM. The time to peak (Tmax) in data set [4] amounted to 12 h. Moreover, the half-life in data set [4] (read-out: t½ (converted)) was 13 h.

With semaglutide, the “AUC30 min of Insulin After Bolus IV Glucose” value in data set [5] was 76.4 and 76.6 and 80.9. Also, the “Δ Body Weight (g)” value in data set [6] (10 nmol/kg SQ daily 14 days, day 15, difference vs vehicle, DIO mice) is −9.23 ± 0.58* g. Besides, in data set [6] (setting [8]), the “Δ Cholesterol” value was −73.33 ± 4.17* mg/dL, the “Δ Glucose” value was -18.33 ± 2.81 mg/dL, the “Δ Insulin” value was -4.15 ± 2.23 ng/mL and the “Δ Trigs” value is listed as 16.00 ± 0.38 mg/dL. Also, the “Fat Mass (%)” value in data set [6] (10 nmol/kg SQ daily, difference in fat mass between days 0 and 15 (NMR), DIO mice) is on record as −15.14 ± 1.93* %. The “Δ Body Weight (%)” value in data set [6] (10 nmol/kg SQ daily, percent decrease between days 1 and 15, DIO mice) was −21.98 ± 2.58* %.

For orientation: Emax means the greatest response seen or fitted, relative to the assay's reference. For orientation: AUC(0-inf) means the area under the concentration-time curve extrapolated to infinity. The CL/F is the apparent clearance, not corrected for the fraction that reaches the circulation. One may read the Cmax as the peak of the concentration-time curve. A word on the Tmax: it is the time at which the peak concentration occurs.

The values above are taken from patent publication US20260125440A1, “INCRETIN ANALOGS AND USES THEREOF” (ELI LILLY AND COMPANY, priority 2019, published 2026).
